Assay results published in patent US20240264169A1, “METHOD FOR THE QUANTIFICATION OF THE ACTIVATION STATE OF G-PROTEIN-COUPLED RECEPTORS IN A HUMAN BIOLOGICAL SAMPLE” (ALDA S.R.L., priority 2021, published 2024).
Where “and” joins values, the source holds several entries; their conditions need not be identical. Identical values can stand only once.

Assays:
Format in all cases: cell-based
[1] = system: human neutrophils; assay: Neutrophil morphology upon fixation (spherical vs polarized)
Experimental: (§1) Precisely this last aspect, however, offers added value in monitoring the interaction of the receptor with β-Arrestin. Indeed, in this scenario, the maximum interaction value between these two proteins is recorded 8 to 12 minutes after the interleukin stimulus. The measurement of the activation state occurs within a defined time window, the beginning of which coincides with the time of sampling (FIG. 1a). By subjecting the blood aliquots to a stasis under controlled conditions, it is possible to obtain a homogeneous activation state among the neutrophils in the control sample, estimated by quantifying the amount of receptor that is bound to β-Arrestin at the time of fixation. […] The amount of activation is obtained by difference with the basal state, which corresponds to the amount of desensitized receptor found after the same time interval in each experiment. The correlation between FRET signal intensity and morphology (FIG. 4c) allows us to assess the effectiveness of the inhibitor: the change in morphology from spherical to polarized in the presence of high FRET, indicates the persistence of a G-protein pathway-mediated signal. In contrast, the presence of high FRET in perfectly spherical cells (indistinguishable from those observed in the control aliquot), is an indication of high desensitization of the receptor by β-Arrestins, and thus the inhibitor is able to promote deactivation of the receptor, with the effect of a drastic reduction in G-protein-mediated signaling.
Thus, the treatment with allosteric inhibitors generates high receptor desensitization. However, if IL-8 treatment is conducted in the presence of allosteric inhibitor, neutrophil morphology is maintained spherical even under stimulated conditions. […] In the quiescent or competitive inhibition condition, the neutrophil consistently retains a spherical morphology.
The most striking difference between the condition in which the sample is treated with IL-8 and the condition in which the sample is pretreated with inhibitor and then subjected to the IL-8 stimulus concerns morphology. […]

[2] = system: human neutrophils; assay: Cell count after treatment of blood sample
From the text: Another aspect that strongly distinguishes the sample activated with IL8 alone and the IL8_+_navarixin sample is the cell count after treatment.

[3] = target: T1, CXCR1-βArrestin2 interaction (Homo sapiens, UniProt P25024); assay: FRET-FLIM donor probe lifetime measurement, anti-CXCR1 donor / anti-βArrestin2 acceptor, neutrophils; details: Reparixin 100 μg/ml; one value per cell (3 cells); Levenberg-Marquardt fitting; Control 2.57-2.63, Donor only 2.64-2.67
T1 construct: expression and localization of endogenous CXCR1 protein; endogenous in cells; host or cells: human neutrophils in venous blood aliquots
T1 sequence (P25024 1-350): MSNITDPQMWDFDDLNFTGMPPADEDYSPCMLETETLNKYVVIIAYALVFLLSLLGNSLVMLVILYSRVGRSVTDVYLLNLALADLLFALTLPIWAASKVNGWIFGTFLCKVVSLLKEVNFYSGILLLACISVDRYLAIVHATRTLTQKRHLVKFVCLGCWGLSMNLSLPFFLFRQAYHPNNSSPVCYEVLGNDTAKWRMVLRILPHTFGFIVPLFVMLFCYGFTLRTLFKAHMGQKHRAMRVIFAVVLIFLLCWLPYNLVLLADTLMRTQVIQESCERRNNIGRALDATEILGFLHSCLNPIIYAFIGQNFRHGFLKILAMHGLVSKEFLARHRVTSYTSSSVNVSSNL
From the text: The fitting model used is bi-exponential and the measurement is repeated for each individual neutrophil: a global decay curve consisting of the summation of the curves recorded in all the pixels that make up the analyzed cell is generated for each of them. The rate of decay of the fluorescence intensity of the total donor population (bound and unbound receptor) is of the exponential type and follows the trend described by the formula:
The decay acquired in each region of interest (ROI) corresponds to the lifetime obtained from the cumulative histogram consisting of the summation of all pixels contained in the ROL The histogram is interpolated by bi-exponential fitting, and the lifetime calculated on the two components (A1 and A2) with the following equation:
The expression used to calculate the FRET efficiency by using the FLIM technique is as follows:
where tD is the absolute donor lifetime, measured in a sample containing only the donor probe, and tD-A is the donor lifetime in a sample subjected to the same condition, in which both donor and acceptor probes are present.
To correctly interpret the following graph (FIG. 8b), remember that the presence of interaction induces a lowering of the donor probe lifetime; this lowering is quantified by the slope of the decay curve, which corresponds to the donor probe lifetime (τ). The value of τ can be derived numerically from the nonlinear fitting of the decay curve.
The Levenberg-Marquardt algorithm, which is based on the method of least squares, was used for nonlinear fitting of the recorded decay curves.
The values of r extrapolated from the nonlinear fitting by using the Levenberg-Marquardt algorithm were further verified using the maximum likelihood estimation (MLE) method, which allows for greater accuracy in evaluating the parameters obtained from the statistical distribution of photonic phenomena (such as the decay of a fluorophore's emission), as these phenomena are generally governed by a Poissonian distribution. The values shown in the table are those calculated exclusively by the Levenberg-Marquardt algorithm.

[4] = target: T2, CXCR1//ArrB interaction (Homo sapiens, UniProt P25024); assay: FRET assay (intensity-based acceptor photobleaching) of CXCR1//β-Arrestin interaction on neutrophils
T2 construct: expression and localization of endogenous CXCR1 protein; endogenous in cells; host or cells: human neutrophils in venous blood aliquots
T2 sequence (P25024 1-350): T1 sequence (P25024 1-350)
From the text: Next, the measured FRET efficiency is related to the abundance of the interaction between the donor and acceptor probe within each pixel of the image. Detection of the FRET signal consists of a precise estimate of the fluorescent emission (FD) intensity or emission decay rate (<τ>) of the donor probe. The quantization of FD in a biological sample appears to be inexpensive in terms of complexity and cost of the instrumentation required for analysis. […] Below is the formula used to calculate the FRET (pixel by pixel) efficiency shown in the images reported in this study:
as §1, with “signal.” for “signal. In contrast, the presence of high FRET in perfectly spherical cells (indistinguishable from those observed in the control aliquot), is an indication of high desensitization of the receptor by β-Arrestins, and thus the inhibitor is able to promote deactivation of the receptor, with the effect of a drastic reduction in G-protein-mediated signaling.”
Next, the FRET assay for measuring the CXCR1//ArrB interaction on neutrophils was repeated, operating in triplicate (FIG. 4). A first control sample, CTRL-DMSO, corresponds to the sample set at 30 minutes; this time is required for neutrophils to return to a resting state after mechanical activation due to handling. […] Values reported refer to the measurements on 15 neutrophil cells of donor fluorophore de-quenching following acceptor photo-bleaching, obtained by the INTENSITY-BASED ACCEPTOR PHOTOBLEACHING approach (FIG. 7 and Table 1).
The CTRL of each triplicate consists of a sister sample subjected to the same treatment conditions unless drug addition. Exclusively for the time zero sample, fixation was carried out at about one minute after sampling, and the analysis reported high FRET probably due to heterologous desensitization. For all remaining samples, fixation was performed at 30 minutes after sampling, an interval of time during which the drug was allowed to act, directly added to the tube of each treated sample.

[5] = target: T3, CXCR1-GaI interaction (Homo sapiens, UniProt P25024); assay: FRET-FLIM analysis of the CXCR1-GaI interaction pair; details: in the presence of IL-8 (10 nM)
T3 construct: expression and localization of endogenous CXCR1 protein; endogenous in cells; host or cells: human neutrophils
T3 sequence (P25024 1-350): T1 sequence (P25024 1-350)
Experimental: The receptor activation status was measured through the quantification of CXCR1-GaI and CXCR1-Arrestin interactions. […] In this circumstance, the minimum value of FRET is assumed, which serves as an internal control.

[6] = IL-8 treatment in the presence of allosteric inhibitor
[7] = REPARIXIN 100 ugmL-1, 30 min, 15 neutrophil cells, each column one of triplicate samples

Row | Compound | neutrophil morphology [1, 6] | number of cells compared to control ([2]; sample pretreated with inhibitor, then stimulated with IL-8) | τ (donor probe lifetime) [3] | FRET (donor de-quenching after acceptor photobleaching), Mean [4, 7] | FRET (donor de-quenching after acceptor photobleaching), Median [4, 7] | FRET in analyzed cells ([4]; Reparixin 40 ug/ml, two of the three samples) | FRET versus control (interaction with β-Arrestins) ([4]; combined treatment IL-8 + allosteric inhibitor) | FRET in analyzed cells ([4]; highest concentration of Reparixin (100 μg/mL), 30 min) | signal lifetime versus non-activated control [5] | neutrophil morphology ([1]; IL-8 treatment, inhibitor absent) | cells found at the time of fixation relative to control ([2]; sample stimulated with IL-8 alone) | amount of receptor in the desensitized state (in complex with b-Arrestin2) ([4]; IL-8 stimulation, in presence and absence of allosteric modulator) | time of maximum receptor-β-Arrestin interaction after stimulus ([4]; after the interleukin stimulus)
1 | CC[C@@H](Nc1c(Nc2cccc(C(=O)N(C)C)c2O)c(=O)c1=O)c1ccc(C)o1 [Navarixin] | spherical | same number of cells |  |  |  |  |  |  |  |  |  |  | 
2 | CC(C)Cc1ccc([C@@H](C)C(=O)NS(C)(=O)=O)cc1 [Reparixin] | spherical |  | 2.05 and 2.12 and 2.1 | 32.35 and 27.67 and 32.60 | 38.96 and 21.92 and 35.03 | many cells with FRET values equal to the control | higher than control | high in many cells |  |  |  |  | 
3 | interleukin-8 [IL-8] |  |  |  |  |  |  |  |  | decrease in signal lifetime | polarized | about 20% | significant increase | 8 to 12 min
